Assay [1] concerns the target T1, purified HABP2 (Homo sapiens, UniProt Q14520).
T1 construct: host or cells: human pulmonary endothelial cells (EC); secreted into the medium, immunoprecipitated with anti-HABP2 antibody
As to the kind of experiment: HABP2 protease assay (QuantiCleave, succinylated casein). The conditions noted are these: purified HABP2, various concentrations of HA. The class given is biochemical. The procedure:
HABP2 protease assay. Protease activity is measured using the QuantiCleave™ Protease Assay Kit (Pierce). Briefly, the immunobeads are incubated with succinylated casein for one hour followed by development with TNBSA (2,4,6-trinitrobenzene sulfonic acid) and read at 450 nm.
HABP2 protein purification and protease activity determination. Media from HABP2 overexpression vector-transfected EC (Origene) was immunoprecipitated with anti-HABP2 antibody-conjugated Sepharose beads (Sigma). The immunobeads were then extensively washed in 50 mM Borate, pH=8.5 and eluted with 1M NaCl with 0.1% NP-40 and dialyzed against a 1,000 fold excess of 50 mM Borate, pH=8.5. Protein assays were performed to quantitate total protein. The purified protein was run on SDS-PAGE and either immunoblotted with anti-HABP2 antibody (Novus Biologicals) or stained with Imperial™ protein stain (Pierce) to check for purity. Protease activity was measured using the QuantiCleave™ Protease Assay Kit (Pierce). Briefly, the immunobeads were incubated with succinylated casein for one hour followed by development with TNBSA (2,4,6-trinitrobenzene sulfonic acid) and read at 450 nm.
Determination of the role of HMW-HA/HABP2/C1INH interactions in regulating angiogenesis in vitro. Human pulmonary EC (Cambrex), grown in EBM-2 complete medium (Cambrex) at 37° C. in a humidified atmosphere of 5% CO2, 95% air, with passages 6-10 used for experimentation will be treated with or without 100 nM HMW-HA and/or 100 nM VEGF in the presence or absence of HABP2 and/or C1INH overexpression vectors (Origene), exogenous purified recombinant HABP2 polyanion binding domain and/or C1INH (Novus Biologicals) and/or siRNA (scramble, HABP2 or C1INH). For HABP2 protease activity determination, media from HABP2 overexpressing EC (see above) was immunoprecipitated with anti-HABP2 antibody-conjugated Sepharose beads (Sigma). The immunobeads were then extensively washed in 50 mM Borate, pH=8.5 and protease activity was measured using the QuantiCleave™ Protease Assay Kit (Pierce). Briefly, the immunobeads were incubated with succinylated casein for one hour followed by development with TNBSA (2,4,6-trinitrobenzene sulfonic acid) and read at 450 nm.

Assay [2] has as its system HPMVEC. As to the kind of experiment: EC migration (transwell). The class given is cell-based, human. Conditions: 100 nM HA with or without 100 nM VEGF, or siRNA 48 hours then VEGF; 18 hours. The protocol:
Determination of the role of HMW-HA/CD44 interactions in regulating hyaluronidase activity and angiogenesis in vitro. Human pulmonary microvascular EC (HPMVEC) (Cambrex), grown in EBM-2 complete medium (Cambrex) at 37° C. in a humidified atmosphere of 5% CO2, 95% air, with passages 6-10 used for experimentation was treated with or without 100 nM HMW-HA and/or 100 nM VEGF in the presence or absence of CD44 isoform-specific blocking antibodies (EMD Biosciences), siRNA (scramble, CD44, Hyal-1, Hyal-2, Hyal-3 or Hyal-4) and the potent hyaluronidase inhibitor, L-ascorbic acid 6-hexadecanoate (Botzki et al., 2004) (Sigma). […] Treated EC will either be analyzed for protein expression, hyaluronidase activity or VEGF-induced proliferation, migration or tube formation. […] Cells from the upper and lower chamber were quantitated using the CellTiter96™ MTS assay (Promega, San Luis Obispo, Calif.) and read at 492 nm. % migration was defined as the # of cells in the lower chamber […] the number of cells in both the upper and lower chamber. Each assay was set up in triplicate, repeated at least five times and analyzed statistically by Student's t test (with statistical significance set at P<0.05). […] The in vitro cell proliferation assay was analyzed by measuring increases in cell number using the CellTiter96™ MTS assay (Promega, San Luis Obispo, Calif.) and read at 492 nm. […]

“Also recorded” adds a separate entry of the source.

T1 sequence (Q14520 24-560): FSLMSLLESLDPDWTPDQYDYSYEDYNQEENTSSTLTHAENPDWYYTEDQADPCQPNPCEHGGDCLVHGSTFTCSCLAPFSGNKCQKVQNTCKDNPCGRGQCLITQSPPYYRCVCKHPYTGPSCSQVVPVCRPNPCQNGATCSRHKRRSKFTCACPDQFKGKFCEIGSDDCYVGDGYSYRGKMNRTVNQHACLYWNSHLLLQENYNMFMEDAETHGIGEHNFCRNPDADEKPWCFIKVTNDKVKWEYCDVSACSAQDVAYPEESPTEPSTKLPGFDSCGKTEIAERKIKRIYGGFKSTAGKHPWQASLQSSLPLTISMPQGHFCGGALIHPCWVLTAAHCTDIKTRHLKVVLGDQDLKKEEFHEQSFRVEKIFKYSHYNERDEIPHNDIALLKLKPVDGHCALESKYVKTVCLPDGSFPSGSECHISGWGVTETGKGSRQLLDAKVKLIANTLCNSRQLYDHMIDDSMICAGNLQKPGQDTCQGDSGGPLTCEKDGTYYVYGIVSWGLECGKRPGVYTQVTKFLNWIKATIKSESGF

As to hyaluronan [HMW-HA], the HABP2 protease activity result in assay [1] is “inhibits”; in assay [1] (listed as High molecular weight hyaluronan), “directly binds and inhibits the enzymatic activity of HABP2”; in assay [1] (listed as high MW hyaluronan) it was “reduced its activity”. The “EC migration (% Migration)” value in assay [2] is “inhibited VEGF-induced hyaluronidase expression, EC proliferation (A) and migration (B)”.

Take hyaluronan [LMW-HA, reference compound]: the HABP2 protease activity entry in assay [1] is given as “activates; also recorded: enhances”; in assay [1] (listed as low MW hyaluronan) it was “increased the protease activity of purified HABP2 in a dose-dependent manner”. For the same substance, the “EC migration (% Migration)” value in assay [2] was “promotes EC proliferation and migration”.

For the origin of these results see US20100249064A1, “METHODS AND COMPOSITIONS FOR TREATING DISEASES AND CONDITIONS INVOLVING HIGHER MOLECULAR WEIGHT HYALURONAN” (University of Chicago, priority 2007, published 2010).
